Experimental data reported in the METLIN SMRT retention time set (Domingo-Almenara et al. 2019).

Test: gradient 5% acetonitrile 3 min, to 50% in 2 min, to 85% in 15 min, held 3 min, 100 µL/min
Settings: column: Zorbax Extend-C18 2.1 x 50 mm; eluents: water / acetonitrile, 0.1% formic acid
Procedure, shortened: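 Pure standards were run in mixtures of ~100 molecules by HPLC coupled to a quadrupole time-of-flight mass spectrometer. The column was a Zorbax Extend-C18 (2.1 × 50 mm, 1.8 μm) at 100 μL/min, with water and acetonitrile each containing 0.1% formic acid, in positive and negative ionization mode. Dead and dwell volumes were 40 μL and 900 μL. Retention time was taken from computationally picked adduct peaks, each manually inspected, with data collected over 3 months.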

RP-LC retention time [s] | SMILES
807 | COc1cccc(C(=O)NC2CCN(c3cc(-c4ccc(Cl)cc4)[nH]n3)C2)c1OC (stereo not drawn)
853 | CCCn1c(=O)sc2cc(S(=O)(=O)N3CCC(C(=O)NC(C)CC)CC3)ccc21 (stereo not drawn)
1020 | COc1cccc(-c2nnc(Cc3nc(-c4ccccc4F)no3)o2)c1
590 | CNC(=O)c1noc([C@@H]2CC(F)(F)CN2Cc2cccn2C)n1
707 | CCCS(=O)(=O)N1CCCN(S(=O)(=O)c2ccccc2)CCC(=O)NCC1
777 | CCNC(=O)c1cnn(-c2ccc(-c3nc(CC)no3)cn2)c1C
688 | CCNC(=O)c1nc(Nc2ccc(F)cc2)c2ccccc2n1
552 | Cc1nc(C)c(-c2ccc(=O)n(CCNC(=O)Cn3cnc4ccccc43)n2)s1
598 | COc1ccc(N2CCN(C(=O)c3cn4c(n3)COCC4)CC2)cc1
640 | O=C(Cn1nc2n(c1=O)CCCC2)NCc1ccccc1
838 | CCN(C(=O)C1CCC(C)CC1)c1nc(-c2ccccc2)cs1 (stereo not drawn)
793 | O=C(Cn1nc2c(N3CCc4ccccc4C3)nccn2c1=O)NC1CCCC1
1110 | CCOC(=O)CC(=O)Nc1ccc(-c2nc(-c3cc(C)ccc3C)co2)cc1
787 | CCOC(=O)C1CCCN(C(=O)C2c3cc(OC)c(OC)cc3C(=O)N(C)C2c2cccs2)C1 (stereo not drawn)
963 | Fc1ccc(Nc2c(-c3ccc(Cl)cc3)nc3cnccn23)cc1
738 | O=C([C@H]1C[C@@H](F)CN1S(=O)(=O)c1ccc(C(F)(F)F)cc1)N1CCOCC1
849 | O=C(CN1C(=O)CCS(=O)(=O)c2ccccc21)Nc1cccc(C(F)(F)F)c1
763 | Cc1cccc(-c2ncccc2CNS(=O)(=O)c2cccc(Cl)c2)c1
790 | CCC(=O)N1CCc2cc(CNS(=O)(=O)c3ccccc3)ccc21
626 | CCC(=O)N1CCC2(CC1)CC1C(=O)N(CC)C(=O)N1C2 (stereo not drawn)
1000 | CSc1ccc(CNc2cc(-n3nc(C)cc3C)ncn2)cc1
614 | CCOCCCNC(=O)N1CCC(c2noc(-c3cnccn3)n2)C1 (stereo not drawn)

RP-LC retention time [s] | SMILES
638 | O=C(Cn1nc2n(c1=O)CCCC2)Nc1ccc2c(c1)OCO2
662 | CCCCN1C(=O)c2ccccc2C(C(=O)NCc2ccncc2)C12CCCCC2 (stereo not drawn)
727 | CCOC(=O)c1csc(NC(=O)Cn2nc3c(cc2=O)CCCC3)n1
648 | CN(C)c1ccc(CNC(=O)c2nnc(-c3ccc(S(=O)(=O)N4CCOCC4)cc3)o2)cc1
966 | Cc1c(C(=O)N2CCCC(C)C2)sc2ncn(CC(=O)N3CC(C)CC(C)C3)c(=O)c12 (stereo not drawn)
654 | CCCNC(=O)CCNc1c(-c2ccc(C)cc2)nc2cnccn12
1110 | CCSc1nc2ccc(NS(=O)(=O)c3ccc4c(c3)CCC4)cc2s1
1090 | COc1ccc(S(=O)(=O)Cc2nc(-c3cccc(Br)c3)no2)cc1
765 | COc1ccccc1N1CCN(C(=O)C2CCN(c3ncnc4c3oc3ccccc34)CC2)CC1
1170 | CCOc1ccccc1NC(=O)N1CCc2nc(-c3ccc(Cl)cc3)ncc2C1
696 | Cc1cc(-c2nnc(NC(=O)C3CCCN(S(=O)(=O)c4cccs4)C3)o2)nn1C (stereo not drawn)
866 | Cc1ccc(NC(=O)C2CCCN(S(=O)(=O)c3c[nH]c(C(=O)N4CCCC4)c3)C2)cc1C (stereo not drawn)
926 | O=C(Nc1ccc2c(c1)N(S(=O)(=O)c1ccccc1)CCC2)c1ccccc1[N+](=O)[O-]
818 | O=C(NC1CC1)c1nc(C(=O)N2CCN(c3ccccc3F)CC2)cs1
654 | Cc1nn(CC(=O)NCCN2CCOCC2)c(=O)c2c(-n3cccc3)n(-c3ccc(F)cc3)nc12
696 | CC(C)N1CCN(C(=O)C2CCN(c3nc4ccc(-c5ccccc5)nc4s3)CC2)CC1
853 | O=C(NCc1nn(Cc2ccccc2)c2ccccc12)c1ccco1
866 | O=C(CSc1nnc2c(=O)n(-c3ccc(Br)cc3)ccn12)c1ccccc1
981 | Cc1ccc(NC(=O)N2CCc3cn(C)c4cccc(c34)C2)cc1C
574 | O=C(NCc1ccncc1)c1ccc(-c2ccc(N3CCSCC3)nc2)cc1
763 | Cc1cc(C)cc(Nc2c(-c3cccc(O)c3)nc3cnccn23)c1
1100 | COc1ccc(N2CCN(c3cc(SCC(=O)Nc4ccc(C)c(Cl)c4)ncn3)CC2)cc1

RP-LC retention time [s] | SMILES
720 | CC1(C(=O)NCc2ccccc2)Cn2cnc(C(=O)N3CCc4ccccc43)c2C(=O)N1C1CC1 (stereo not drawn)
748 | CCCn1cc(CCNC(=O)c2ccccc2Br)c2cccnc21
1040 | CCC1CCCCN1C(=O)CN1C(=O)CCCc2cc(S(=O)(=O)N3CCC(C)CC3)ccc21 (stereo not drawn)
710 | CCc1ccc(NC(=O)Cn2c(CC)nc3c(c2=O)CN(Cc2ccccc2)CC3)cc1
715 | CCc1nncn1C1CCN(S(=O)(=O)c2ccc(F)c(C)c2)CC1
1050 | O=c1ccc(-c2ccc3c(c2)OCO3)nn1CCc1nc(-c2ccc(Br)cc2)no1
650 | O=C(c1nnc(-c2ccc(S(=O)(=O)N3CCCC3)cc2)o1)N1CCN(c2ccccn2)CC1
767 | Cn1cccc1Cc1nnc(SCC(=O)N2CCCc3ccccc32)n1C
689 | Cc1[nH]ncc1CNC(=O)c1ccc2nc(Cc3ccccc3F)oc2c1
761 | COc1ccccc1N1CCN(C(=O)CCc2c(C)n(C)c3nc(-c4ccccc4)nn3c2=O)CC1
704 | CCc1cccc(NC(=O)C2(C)Oc3cccnc3NC2=O)c1 (stereo not drawn)
615 | CCOC(=O)C1=C(CN2CCN(c3ccccn3)CC2)NC(=O)NC1c1cccc(OC)c1OC (stereo not drawn)
813 | Cc1ccc(NC(=O)c2csc(-c3ccc(N4CCCC4)nc3)n2)c(C)c1
1010 | O=S(=O)(c1ccc(-c2nnc(C3CCCC3)o2)o1)N1CCCCC1
765 | CN(C)c1nn(CC(=O)NCc2ccc3c(c2)OCO3)c(=O)c2ccccc12
955 | CC(=O)NCc1ccc(-c2noc(-c3ccc(F)c(Cl)c3)n2)s1
655 | Cc1ccn2cc(-c3ccc(C)c(NS(=O)(=O)c4ccccc4)c3)nc2c1
994 | Cc1ccc(NC(=O)CN2C(=O)C3CCCCN3c3ccc(S(=O)(=O)N(C)C)cc32)c(C)c1 (stereo not drawn)
724 | CCCNC(=O)c1nnc(-c2ccc(S(=O)(=O)N3CCOCC3)cc2)o1
603 | O=C(NC1CCN(Cc2ccccc2)CC1)C1CCN(c2ncnc3c2oc2ccccc23)CC1
887 | Cc1c(C(=O)C(=O)NCCc2ccccc2)c2ccccc2n1C
762 | Cc1cc([N+](=O)[O-])nn1CC(=O)Nc1c(F)cc(F)cc1Br

RP-LC retention time [s] | SMILES
765 | Cc1cccc2c(=O)n(C3CCN(C(=O)Nc4ccc(F)cc4)CC3)cnc12
957 | CCn1cc(-c2nc(-c3cc(OC)cc(OC)c3)no2)c(=O)c2cc(F)c(N3CCOCC3)cc21
854 | O=c1ccc(S(=O)(=O)N2CCCC2)cn1Cc1ccccc1Cl
731 | Cc1ccc(-c2ccc(-n3nc(C)c(S(=O)(=O)N4CCN(C)CC4)c3C)nn2)cc1C
877 | CCOC(=O)c1c(S(=O)(=O)N2CCC(C(=O)NC3CCCCCC3)CC2)c(C)n(C)c1C
652 | O=C(Cn1ccc2ccccc21)N1CCN(c2ccc(-c3ccccn3)nn2)CC1
1170 | COc1ccc(Nc2nc(N3CCN(c4ccccc4OC)CC3)nc3c2C(=O)CCC3)cc1
731 | O=C(NCC1CCCO1)C1CCN(Cc2cc3ccccc3n2Cc2ccccc2Cl)CC1 (stereo not drawn)
928 | O=C(NCc1nc(-c2ccc3c(c2)Sc2ccccc2C(=O)N3C2CC2)no1)c1cccs1
896 | CCOC(=O)c1ccc(Nc2nc(C(=O)OCC)nc3ccccc23)cc1
649 | OCCNCc1ccc(-c2cccc(C(F)(F)F)c2)o1
901 | Cc1cc(C)cc(S(=O)(=O)N2CCCN(c3ccc(=O)n(-c4ccccc4)n3)CC2)c1
707 | COCc1nc2ccccc2n1CC(=O)N(c1ccccc1)C(C)C
878 | CCOC(=O)c1ccc(N2CC3=C(C2=O)C(c2ccc(OC)cc2)NC(=O)N3C)cc1 (stereo not drawn)
1300 | Cn1nccc1-c1cccc(-c2noc(-c3cccc(Br)c3)n2)c1
910 | COc1ccc(C2(C(=O)N3CCC(c4nc(-c5cccn5C)no4)C3)CC2)cc1 (stereo not drawn)
889 | CNC(=O)c1cc2c(s1)N(CC1CC1)CCCC2
666 | Cn1c(CNC(=O)C2CCC2)nc2c1CN(S(=O)(=O)c1ccc(Cl)s1)CC2
1140 | O=S(=O)(c1cccc2cccnc12)N1CCc2nc(-c3ccc(Cl)cc3)ncc2C1

SMILES | RP-LC retention time [s]
Cn1cc(C(=O)Nc2ccc3c(c2)OCCO3)c2cccnc21 | 727
CCCN(CCC)C1CCc2ccc(O)cc2C1 (stereo not drawn) | 640
OC1CCCCC1N1CCC(c2ccccc2)CC1 (stereo not drawn) | 679
